From PubChem BioAssay AID1902 (Broad Institute, 2009) come the findings set out here.

Calls of active or inactive are those of the source.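 The calls were made as follows: active = EC50 no more than a set limit of log units above the highest dose; inactive = the rest.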

In the assay the target is S. pyogenes SKKanGAS, kanamycin survival, BacTiterGlo, 6 h. The experiment in a line: SKKanGAS survival reduction under kanamycin, dose response, streptokinase promoter inhibitor project, SKKanGAS strain, luminescence, dose confirmation (AID 1902).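 Also: lower survival reflects blocked streptokinase promoter driving kanamycin resistance gene.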

Turning to `Cc1ccc(NC(=O)c2nc[nH]c2C(=O)N[C@@H](CCCCNC(=O)OC(C)(C)C)C(=O)OC(C)(C)C)cc1`, the 50% effective concentration (EC50) is 3.76 µM.
As to `Nc1nc(CN2CCN(c3ccccc3)CC2)nc(N2CCCc3ccccc32)n1`, the EC50 was 0.879 µM.
On to `COc1ccc(-c2sc3ccccc3c2C#CC2(O)CCCCC2)cc1`, for which the EC50 was 4.58 µM.
With `CC(NC(=O)Cn1c(=O)[nH]c2ccsc2c1=O)C12CC3CC(CC(C3)C1)C2` (stereo unspecified), the EC50 was > 15 µM (inactive).
Take `Nc1nc(N)c2cc(Sc3ccc4ccccc4c3)ccc2n1`: the EC50 was 0.115 µM.
For the molecule `CC(=O)[C@]1(O)Cc2c(O)c3c(c(O)c2[C@@H](O[C@H]2C[C@H](N)[C@H](O)[C@H](C)O2)C1)C(=O)c1ccccc1C3=O`, the EC50 is 1.13 µM.
On to `O=C(O)C(c1ccccc1)N1C(=O)/C(=C\c2ccc(-c3cccc(Cl)c3)o2)SC1=S` (stereo unspecified), for which the EC50 is 1.94 µM.
Regarding `C=CCn1c(COc2ccccc2)nnc1SC(C)C(=O)N/N=C/c1cc(Cl)ccc1O` (stereo unspecified), the EC50 is 1.7 µM.
On to `c1cn2c(NC3CCCCC3)c(-c3ccc(SC4CCCCC4)cc3)nc2cn1`, for which the EC50 was 1.97 µM.
In the case of `Cc1ccc(-c2cc3nc(-c4ccc(Br)cc4)cc(N)n3n2)cc1`, the EC50 is 0.561 µM.
For `Nc1[nH]n2c(=O)c3c(nc2c1N=Nc1ccc(Cl)cc1)CCCC3`, the concentration giving a half-maximal response (EC50) is 6.13 µM.
For `CC1CCCCN1S(=O)(=O)c1ccc(C(=O)Nc2nnc(-c3cccs3)o2)cc1` (stereo unspecified), the EC50 is 0.659 µM.
For `CCOC(=O)c1c(C)[nH]c(C(=O)N/N=C/c2cc([N+](=O)[O-])ccc2O)c1C`, the EC50 is 4.39 µM.
On to `CCc1nnc(NS(=O)(=O)c2ccc(NCc3cc(Cl)cc(Cl)c3O)cc2)s1`, for which the EC50 is 14.2 µM.
For `Oc1ccc(-c2nc3c4c(ncn3n2)-c2ccccc2CC42CCCC2)cc1`, the EC50 is 0.843 µM.
Under `CCC(CO)Nc1ncnc2c1cnn2-c1ccc(OC)cc1` (stereo unspecified) stands > 15 µM (inactive); under `CC12CCC(C(=O)Nc3cccc(Cl)c3Cl)([C@H](Br)C1=O)C2(C)C` (stereo partly specified), > 15 µM (inactive).
In the case of `Cc1cccc(NC(=O)c2cc3n(n2)C(C(F)(F)F)CC(c2ccc4c(c2)OCO4)N3)c1` (stereo unspecified), the EC50 was 7.23 µM.
Take `O=c1ccc(N=Nc2ccccc2)ccc1O`: the concentration giving a half-maximal response (EC50) is 3.51 µM.
For `COc1ccccc1-c1nnc(NC(=O)c2ccc(S(=O)(=O)N(C)CC3CCCO3)cc2)o1` (stereo unspecified), the EC50 was 8.41 µM.
Regarding `O=C1NC[C@@H](Cc2cccc3ccccc23)N(CCCCC2CCCCC2)C1=O`, the concentration giving a half-maximal response (EC50) is 3.93 µM.
Turning to `CC(=O)C1=C(c2ccc(Br)cc2)C(=O)c2ccccc2C1=O`, the 50% effective concentration (EC50) was 1.45 µM.
In the case of `Cc1cccc(/C=N/NC(=O)Cc2ccc(Cl)cc2)c1O`, the half-maximal effective concentration (EC50) was 3.53 µM.
In the case of `COCCn1c(SCC(=O)Nc2ccc(F)cc2)nc2c([nH]c3ccccc32)c1=O`, the EC50 was > 15 µM (inactive).
In the case of `CCC(=O)N(CCC(Cc1ccccc1)c1ccc2c(c1)OCO2)Cc1ccccc1F` (stereo unspecified), the concentration giving a half-maximal response (EC50) is 6.5 µM.
For `COC12C(COC(N)=O)C3=C(C(=O)C(C)=C(N)C3=O)N1CC1C2N1C` (stereo unspecified), the concentration giving a half-maximal response (EC50) is less than 0.06 µM.
With `O=C(CNC(=O)c1ccco1)NCc1nc2ccccc2[nH]1`, the EC50 was > 15 µM (inactive).
With `CCN(c1ccc(OC)cc1)S(=O)(=O)c1nnc(NC(=O)c2ccccc2Cl)s1`, the EC50 is 3.31 µM.
As for `Cn1c(CNC(=O)CNC(=O)c2ccc(F)cc2)cc(=O)n(C)c1=O`, the EC50 was > 15 µM (inactive).
Take `COc1ccc(-c2cc3nc4n(c(=O)c3s2)CCC4)cc1`: the EC50 is 0.734 µM.
In the case of `COc1ccccc1-c1n[nH]c2c1[C@H](C)CC[C@H]2C(C)C`, the EC50 is 2.81 µM.
As for `CC(=O)NS(=O)(=O)c1ccc(N=c2ssc3c2-c2ccc(C)cc2NC3(C)C)cc1`, the EC50 is 2.92 µM.
Under `O=C(Cn1nc2ccccc2n1)N/N=C/c1cc([N+](=O)[O-])ccc1O` stands 0.73 µM; under `Cc1ccc(NC(=S)c2nc3ccccc3[nH]2)cc1`, 1.08 µM.
As to `CN1C(=O)/C(=C\c2ccccc2F)Sc2ccc(C(=O)NC3CCN(Cc4ccccc4)CC3)cc21`, the 50% effective concentration (EC50) was 6.22 µM.
As to `O=c1cc(N2CCCCC2)c(-c2ccccc2)nn1Cc1c(Cl)cccc1Cl`, the EC50 is 4.69 µM.
Next, `CC(NC(=O)Nc1nnc(C(F)(F)F)s1)(C(F)(F)F)C(F)(F)F`: 2.97 µM; `COc1ccc(/C=C2/C(=O)N(c3nc4ccccc4s3)N=C2CSc2ccc(Cl)cc2)cc1`: 0.518 µM; `CCOC(=O)c1c(NC(=O)COC(=O)c2ccc(C)s2)sc2c1CC(C)(C)NC2(C)C`: 3.7 µM.
Turning to `COc1ccc(NC(=S)NC(NC(=O)c2ccc(Cl)cc2Cl)C(Cl)(Cl)Cl)c([N+](=O)[O-])c1` (stereo unspecified), the 50% effective concentration (EC50) is 1.15 µM.
Next, `Clc1cc(CSc2ccccc2)nc(-c2ccccc2)n1`: 8.95 µM.
As for `CN(CC1CCCO1)S(=O)(=O)c1ccc(C(=O)Nc2ccc(F)cc2)cc1` (stereo unspecified), the EC50 is > 15 µM (inactive).
On to `O=[N+]([O-])c1cccnc1N1CCC(c2cc(-c3ccc(Cl)cc3Cl)n[nH]2)CC1`, for which the EC50 was 1.24 µM.
Under `O=C(Cc1csc(NC(=O)Nc2cccc(Cl)c2)n1)NCc1cccnc1` stands 4.4 µM; under `Cn1c(SCC(=O)Nc2cccc3ccccc23)nc(O)cc1=O`, > 15 µM (inactive).
Consider `COc1ccccc1CNC(=O)CSc1nc(=O)n(Cc2ccncc2)c2c1CCC2`, for which the EC50 is > 15 µM (inactive).
`FC(F)(F)c1cccc(-c2cc3ccccc3nc2N2CCCC2)c1`: the EC50 was 3.6 µM.
As to `CCc1cc(C(=O)N2CCCC(CCC(=O)NCc3cccc(OC)c3)C2)no1` (stereo unspecified), the EC50 is > 15 µM (inactive).
As for `CCCCNc1c(-c2cccc(-c3ccc(OC)cc3)c2)nc2ccc(C)cn12`, the 50% effective concentration (EC50) is 4.05 µM.
Consider `CCC1(C)Cc2ccccc2-c2nc(-c3ccccc3)oc(=O)c21` (stereo unspecified), for which the EC50 was 5.51 µM.
Next, `N=C1S/C(=C\c2ccco2)C(=O)N1c1nccs1`: 2.13 µM; `Cc1[nH]c2ccccc2c1C(=O)COC(=O)c1ccc2c(=O)n3c(nc2c1)CCC3`: 1.52 µM.
Regarding `C=C(C)C1Cc2c(C)nn(-c3nc(C)cc(C)n3)c2C1` (stereo unspecified), the EC50 is 0.694 µM.
Next, `CO[C@H]1C=CO[C@@]2(C)Oc3c(C)c(O)c4c(O)c(c5c(c4c3C2=O)NC2(CCN(CC(C)C)CC2)N=5)=NC(=O)C(C)=CC=C[C@H](C)[C@H](O)[C@@H](C)[C@@H](O)[C@@H](C)[C@H](OC(C)=O)[C@@H]1C`: less than 0.06 µM; `Cc1[nH]n(-c2ccc(Cl)cc2)c(=O)c1/C=N/n1c(C)nc2ccccc2c1=O`: 1.44 µM; `COc1ccc(CN2C(=O)c3ccccc3C(/C=N\OCc3ccc(C)cc3)C2=O)cc1` (stereo unspecified): 1.29 µM.
Next, `Cc1noc(C)c1C(=O)Nc1ccc2ccccc2c1`: > 15 µM (inactive); `O=C(Nc1nnc(-c2ccc(Br)cc2)o1)c1cccc(N2C(=O)CCC2=O)c1`: 1.35 µM; `COC(=O)C(C)NC(=S)N1CCN(c2c(F)cc3c(=O)c(C(=O)O)cn(C4CC4)c3c2OC)CC1C` (stereo unspecified): 3.31 µM.
On to `Cc1cc(C)c(C(=O)CC(=O)c2ccccc2Cl)c(O)c1`, for which the half-maximal effective concentration (EC50) was 6.76 µM.
As for `CN(C)CCCNC(=S)NCC(c1ccc(Cl)cc1Cl)c1c[nH]c2ccccc12` (stereo unspecified), the 50% effective concentration (EC50) is 7.22 µM.
As for `COc1cc([N+](=O)[O-])cc(/C=N/NC(=O)C(C)Nc2cccc(C)c2)c1O` (stereo unspecified), the EC50 is 8.83 µM.
As to `Cc1ccc(O)c(C(=O)CC(=O)c2ccccc2Cl)c1`, the EC50 is 3.52 µM.
Regarding `Oc1cccc2ccc(/C=C/c3ccc(Br)s3)nc12`, the concentration giving a half-maximal response (EC50) is 1.38 µM.
Under `CCCCNC(=O)c1ccc(NC(C)=O)c(Cl)c1` stands > 15 µM (inactive).
Regarding `Fc1ccccc1N=C1NN=C(c2ccccc2)CS1`, the EC50 was 8.17 µM.
Consider `CCn1c(COc2ccc(C)cc2)nnc1SCc1ccc(C#N)cc1`, for which the EC50 is > 15 µM (inactive).
Turning to `COc1ccc(Cl)cc1C(Nc1cccnc1)c1ccc2cccnc2c1O` (stereo unspecified), the EC50 was 6.28 µM.
For the molecule `CN1CC(c2ccc(Cl)c(Cl)c2)[C@@]2(COc3ccccc3C2=O)[C@@]12C(=O)Nc1ccccc12` (stereo partly specified), the concentration giving a half-maximal response (EC50) is 1.43 µM.
`Cc1cccc(N2CCN(C(=O)C34CC5CC(CC(C5)C3)C4)CC2)c1C`: the EC50 is 5.65 µM.
As to `CC1=CC(C)(C)n2c(O)c(N=N)c3c(C)c(C)cc1c32`, the EC50 is 5.67 µM.
For `O=Nc1c(O)c2ccccc2c2ccccc12`, the half-maximal effective concentration (EC50) was 2.34 µM.
Consider `Cc1sc2nc(-c3ccccn3)[nH]c(=O)c2c1-c1ccccc1`, for which the EC50 is 1.28 µM.
Take `COc1cc([N+](=O)[O-])cc(/C=N/NC(=O)c2cncc(Br)c2)c1O`: the EC50 is 0.97 µM.
As to `COc1ccc2nc(-n3c(C)ccc3C)sc2c1`, the EC50 is > 15 µM (inactive).
Under `Cc1nc(=S)c2c([nH]1)-c1ccccc1CC21CCCCC1` stands 0.945 µM.
As for `COc1ccc(NS(=O)(=O)c2ccc3nc(COc4cccc5ccccc45)[nH]c3c2)cc1`, the 50% effective concentration (EC50) was 5.97 µM.
Turning to `CC(C)=CCCC1(C)C=Cc2c(c(C)cc3c2[nH]c2cc(O)ccc23)O1` (stereo unspecified), the EC50 was 2.65 µM.
Under `COc1cc(F)ccc1CN1CCC(n2nccc2NC(=O)C2CCOC2)CC1` (stereo unspecified) stands > 15 µM (inactive); under `O=C(NNC(=O)c1cc(-c2ccc(Cl)c(Cl)c2)nc2ccccc12)Nc1ccccc1`, 4.83 µM.
Regarding `CN1C(=O)NC(c2ccccc2)(C(F)(F)F)S/C1=C(/C#N)c1nnc(N2CCOCC2)n1-c1ccccc1` (stereo unspecified), the EC50 was > 15 µM (inactive).
Next, `Cc1nn(-c2ccccc2)c(C)c1/C=N/Nc1nc2ccccc2[nH]1`: 9.71 µM; `O=C1N/C(=N\N=C\c2cccs2)SC1Cc1ccc(Cl)c(Cl)c1` (stereo unspecified): 11.4 µM; `CC(C)CC(=O)NC(=S)NNC(=O)c1ccc(NC(=O)C2CCCCC2)cc1`: 0.546 µM.
Regarding `COc1ccc(C2CC(c3cccs3)=NN2C(=O)CSc2nc3c(cnn3-c3ccccc3)c(=O)[nH]2)cc1` (stereo unspecified), the half-maximal effective concentration (EC50) was 2.11 µM.
Turning to `O=C(O)c1ccc(N/N=C/c2ccc(-c3ccc(Br)cc3)o2)cc1`, the half-maximal effective concentration (EC50) is 2.36 µM.
Regarding `Cn1c(-c2cc(Br)ccc2O)n[nH]c1=S`, the EC50 was 9.92 µM.
Turning to `COc1ccc2nc(Nc3nc(C)c(C(C)=O)s3)sc2c1`, the concentration for a half-maximal effect (EC50) was 6.64 µM.
On to `O=C(NC(=S)Nc1ccc(N2CCOCC2)c(Cl)c1)c1cccs1`, for which the EC50 was 9.89 µM.
Under `O=C(O)CCSc1ccc([N+](=O)[O-])cc1[N+](=O)[O-]` stands > 15 µM (inactive).
For `CC(=O)OCC1=C(C(=O)O)N2C(=O)C(NC(=O)Cn3nc(C(F)F)c(Cl)c3C)C2SC1` (stereo unspecified), the half-maximal effective concentration (EC50) is less than 0.06 µM.
